# Where two headings read alike, the source gives them in different places.
# What was measured:
# [1] = test system: myc-h5HT1a and 3HA-hCB1; format: cell-based, human; conditions: 5HT1a/CB1 cell line
# [2] = target: 3HA-hCB1 (Homo sapiens, UniProt P21554); experiment: CAMYEL BRET cAMP signalling assay, HEK cells expressing CB1 alone; format: cell-based; conditions: for cAMP response in the cell line expressing only CB1: CB1-alone HEK line, 5 μM forskolin; for Emax (% inhib of Fsk), ± SEM / pEC50 ± SEM: CB1 cell line
# [3] = test system: C57BL/6 mice; experiment: THC drug discrimination in mice; format: in vivo, mouse; conditions: for Effect on response rates compared to vehicle: alone or in combination with 3 mg/kg pFPP, either sex; for AMB-FUBINACA ED50 (95% confidence limits), + Saline: with saline
# [4] = test system: Long Evans rats; experiment: Plethysmography and telemetry in rats
# [5] = target: 5HT1a; conditions: ref Scherman et al., 1988; cited from earlier work
# [6] = AMB-FUBINACA metabolism in rat liver microsomes; format: in vitro ADME; conditions: pFPP 0.59, 1.18, 2.36 μg/ml
# [7] = AMB-FUBINACA metabolism in human liver microsomes; format: in vitro ADME; conditions: pFPP 0.59, 1.18, 2.36 μg/ml
# [8] = target: T1, myc-h5HT1a (Homo sapiens, UniProt P08908); experiment: CAMYEL BRET cAMP signalling assay, HEK cells expressing 5HT1a alone; format: cell-based; conditions: 5HT1a-alone cell line, in the presence of 31.6 nM 8OH-DPAT
# T1 sequence (P08908 1-422): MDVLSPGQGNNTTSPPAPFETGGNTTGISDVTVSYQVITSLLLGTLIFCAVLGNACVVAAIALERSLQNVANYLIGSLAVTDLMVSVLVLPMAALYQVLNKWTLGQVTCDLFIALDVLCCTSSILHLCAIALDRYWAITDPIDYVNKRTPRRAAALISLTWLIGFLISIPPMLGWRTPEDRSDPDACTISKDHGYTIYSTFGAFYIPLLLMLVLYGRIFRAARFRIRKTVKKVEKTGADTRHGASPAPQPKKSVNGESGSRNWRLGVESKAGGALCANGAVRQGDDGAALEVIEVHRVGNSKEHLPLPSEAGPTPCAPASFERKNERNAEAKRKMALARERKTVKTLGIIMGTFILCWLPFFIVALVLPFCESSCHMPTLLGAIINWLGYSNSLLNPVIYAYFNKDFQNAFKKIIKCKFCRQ
# [9] = target: T2, myc-h5HT1a and 3HA-hCB1 (Homo sapiens, UniProt P08908); format: cell-based; conditions: 5HT1a/CB1 cell line, in the presence of 31.6 nM 8OH-DPAT
# T2 sequence (P08908 1-422): T1 sequence (P08908 1-422)
# [10] = inhibition of 5 μM forskolin-induced cAMP, drug alone
# Chain of 3HA-hCB1 (P21554 whole entry): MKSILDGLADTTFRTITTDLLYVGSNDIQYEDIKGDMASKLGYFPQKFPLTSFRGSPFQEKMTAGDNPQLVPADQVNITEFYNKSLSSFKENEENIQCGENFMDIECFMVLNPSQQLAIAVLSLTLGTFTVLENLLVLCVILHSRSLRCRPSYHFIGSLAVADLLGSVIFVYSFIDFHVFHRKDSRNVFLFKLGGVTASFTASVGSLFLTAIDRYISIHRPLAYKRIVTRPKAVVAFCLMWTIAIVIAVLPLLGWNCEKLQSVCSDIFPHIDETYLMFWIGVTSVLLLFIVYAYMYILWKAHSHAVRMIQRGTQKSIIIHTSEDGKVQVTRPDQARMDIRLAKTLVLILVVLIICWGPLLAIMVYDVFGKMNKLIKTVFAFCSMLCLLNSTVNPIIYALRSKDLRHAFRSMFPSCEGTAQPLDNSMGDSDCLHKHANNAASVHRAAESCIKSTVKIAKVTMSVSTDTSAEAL
smiles,measurement,setting,value
"CCCN(CCC)C1CCc2cccc(O)c2C1 (centres unmarked) [8OH-DPAT, 8-hydroxy DPAT]","Emax (% inhib of Fsk), ± SEM",[1]; drug alone,66.6 ± 1.3 % inhib of Fsk
same,pEC50 ± SEM,[1]; [10],8.39 ± 0.21
same,cAMP response in the cell line expressing only CB1,[2],without showing activity
COC(=O)[C@@H](NC(=O)c1nn(Cc2ccc(F)cc2)c2ccccc12)C(C)C [AMB-FUBINACA],"Emax (% inhib of Fsk), ± SEM",[1]; + WAY100635 (1 μM),59.4 ± 9.17 % inhib of Fsk
same,pEC50 ± SEM,[1]; + WAY100635 (1 μM),9.11 ± 0.16
same,"Emax (% inhib of Fsk), ± SEM",[1]; + pFPP (31.6 μM),64.9 ± 3.5 % inhib of Fsk
same,pEC50 ± SEM,[1]; + pFPP (31.6 μM),9.39 ± 0.11
same,"Emax (% inhib of Fsk), ± SEM",[1]; drug alone,61.0 ± 1.7 % inhib of Fsk
same,pEC50 ± SEM,[1]; [10],9.21 ± 0.14
same,"Emax (% inhib of Fsk), ± SEM",[2]; + WAY100635 (1 μM),55.7 ± 5.78 % inhib of Fsk
same,pEC50 ± SEM,[2]; + WAY100635 (1 μM),9.65 ± 0.14
same,"Emax (% inhib of Fsk), ± SEM",[2]; + pFPP (31.6 μM),57.9 ± 2.33 % inhib of Fsk
same,pEC50 ± SEM,[2]; + pFPP (31.6 μM),9.70 ± 0.16
same,"Emax (% inhib of Fsk), ± SEM",[2]; drug alone,60.8 ± 1.7 % inhib of Fsk
same,pEC50 ± SEM,[2]; [10],9.56 ± 0.09
same,Effect on response rates compared to vehicle,[3],neither cannabinoid (alone or in combination with pFPP) significantly affected response rates
same,Potency relative to THC in drug discrimination,"[3]; both sexes, more potent than THC",49-70 fold
same,"AMB-FUBINACA ED50 (95% confidence limits), + Saline","[3]; female mice, i.p.",0.03 mg/kg (0.006-0.14)
same,"AMB-FUBINACA ED50 (95% confidence limits), + Saline","[3]; male mice, i.p.",0.03 mg/kg (0.007-0.14)
same,Duration of decreases in heart rate,[4]; 0.3 mg/kg AMB-FUBINACA alone,approximately half of the post-injection session
same,Effect on respiratory minute volume,"[4]; 0.3 mg/kg AMB-FUBINACA alone, early in the session",transient decrease
same,Time until which significant hypothermia continued,[4]; 0.3 mg/kg AMB-FUBINACA combined with 10 mg/kg pFPP,165 min
same,Time after injection by which hypothermic effect dissipated,[4]; 0.3 mg/kg AMB-FUBINACA i.p. alone,≤ 135 min
same,Duration of significant decreases in heart rate,[4]; 1 mg/kg AMB-FUBINACA alone,during most of the post-injection session
same,Effect on respiratory minute volume,"[4]; 1 mg/kg AMB-FUBINACA alone and with 10 mg/kg pFPP, part or all of the post-injection session",significantly decreased minute volume
same,Duration of significant hypothermia,[4]; 1 mg/kg AMB-FUBINACA combined with 10 mg/kg pFPP,throughout the session
same,Duration of hypothermic effect,[4]; 1 mg/kg AMB-FUBINACA i.p. alone,endured for the entire 240-min post-injection measurement period
same,Effect on temperature,[4]; 0.03 and 0.1 mg/kg AMB-FUBINACA i.p.,no significant effect
same,Onset of significant hypothermic effect post-injection,"[4]; 0.3 and 1 mg/kg AMB-FUBINACA combined with 10 mg/kg pFPP, vs pFPP alone",75 min
same,Effect on temperature vs vehicle/saline,"[4]; 0.3 and 1 mg/kg AMB-FUBINACA i.p. alone, one or more post-injection time points",produced hypothermia
same,Effect on heart rate,"[4]; 0.3 and 1 mg/kg AMB-FUBINACA i.p., alone or with 10 mg/kg pFPP",decreased heart rate
"CCCCCc1cc(O)c2c(c1)OC(C)(C)[C@@H]1CCC(C)=C[C@@H]21 [THC, Δ^9-tetrahydrocannabinol]",Effect on response rates compared to vehicle,[3],neither cannabinoid (alone or in combination with pFPP) significantly affected response rates
same,"THC ED50 (95% confidence limits), Alone","[3]; female mice, i.p., trained to discriminate 5.6 mg/kg THC from vehicle",1.46 mg/kg (0.62-3.40)
"Fc1ccc(N2CCNCC2)cc1 [pFPP, para-fluorophenylpiperazine]",previously reported affinity (pKi),[5],6.52
same,Effect on AMB-FUBINACA metabolism,[6],not altered by any concentration of pFPP
same,Effect on AMB-FUBINACA metabolism,[7],not altered by any concentration of pFPP
same,Antagonism of cAMP inhibition by 8OH-DPAT,[8],not observed to have any antagonist effect
same,pEC50 ± SEM,[1]; [10],~5.20 ± 0.18^$
same,Antagonism of cAMP inhibition by 8OH-DPAT,[9],not observed to have any antagonist effect
same,cAMP response in the cell line expressing only CB1,[2],no pFPP response was observed
same,Cannabimimetic (THC-like discriminative stimulus) effects,[3]; 3 mg/kg pFPP by itself,did not produce cannabimimetic effects by itself
same,Effect on potency of THC-like discriminative stimulus effects of THC or AMB-FUBINACA,[3]; 3 mg/kg pFPP co-administered,nor did it alter the potency
same,Effect on response rates,"[3]; 10 mg/kg pFPP alone, probe tests, data not shown",substantial decreases in response rates
same,Effect on heart rate in comparison to vehicle,"[4]; 10 mg/kg pFPP alone, i.p.",only early and transient decreases
same,Effect on respiratory minute volume across the post-injection session,"[4]; 10 mg/kg pFPP alone, i.p.",significant decrease
same,Effect on temperature in comparison to vehicle,"[4]; 10 mg/kg pFPP alone, i.p.",only early and transient decreases
same,Effect of co-administration on duration of AMB-FUBINACA heart rate decreases,[4]; 10 mg/kg pFPP with 0.3 or 1 mg/kg AMB-FUBINACA,shortened the duration

# — PMC10020421 (Pharmacology, biochemistry, and behavior, 2023)
